Drawing on PubChem BioAssay AID2060890 (Molecular Pharmacology Branch, DTP, NCI, 2025), this text covers IC50 and viability, T/C for six molecules.

pIC50: −log10 of the molar value. Values joined by “and” are separate entries in the source; they are usually repeats but may differ in a detail not shown here. Equal entries are not always repeated. Some results are limits rather than exact numbers.

The test system of this assay is LG0703-F948-PDC complex spheroid viability. Nature of the assay: Anticancer human tumor LG0703-F948-PDC patient-derived lung adenocarcinoma cell line growth inhibition [RAS]. As to conditions: for viability, T/C: stronger effect = lower value. An outline of the steps:
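Tumour cells grown as complex spheroids with HUVEC endothelial cells and mesenchymal stem cells, treated with RAS pathway inhibitor combinations. Each agent spans half-log steps from near clinical Cmax, or 10 microM where Cmax is unknown.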

Where [1] appears, read: curve of first compound, second compound 0.000949 µM.
Setting [2] is: curve of first compound, second compound 0.003 µM.
Setting [3] is: curve of first compound, second compound 0.00949 µM.
Where [4] appears, read: curve of first compound, second compound 0.03 µM.
[5] abbreviates: curve of first compound, second compound 0.0949 µM.
[6] abbreviates: curve of first compound, second compound 0.3 µM.
[7] abbreviates: second compound 0.000949 µM, first compound 0.0316 µM.
The mark [8] stands for this setting: second compound 0.000949 µM, first compound 0.1 µM.
[9] abbreviates: second compound 0.000949 µM, first compound 0.316 µM.
Where [10] appears, read: second compound 0.000949 µM, first compound 1 µM.
[11] abbreviates: second compound 0.000949 µM, first compound 3.16 µM.
The mark [12] stands for this setting: second compound 0.000949 µM, first compound 10 µM.
[13] abbreviates: second compound 0.003 µM, first compound 0.0316 µM.
The mark [14] stands for this setting: second compound 0.003 µM, first compound 0.1 µM.
[15] abbreviates: second compound 0.003 µM, first compound 0.316 µM.
Setting [16] is: second compound 0.003 µM, first compound 1 µM.
Setting [17] is: second compound 0.003 µM, first compound 3.16 µM.
Setting [18] is: second compound 0.003 µM, first compound 10 µM.
Where [19] appears, read: second compound 0.00949 µM, first compound 0.0316 µM.
The mark [20] stands for this setting: second compound 0.00949 µM, first compound 0.1 µM.
Where [21] appears, read: second compound 0.00949 µM, first compound 0.316 µM.
Setting [22] is: second compound 0.00949 µM, first compound 1 µM.
Where [23] appears, read: second compound 0.00949 µM, first compound 3.16 µM.
Setting [24] is: second compound 0.00949 µM, first compound 10 µM.
The mark [25] stands for this setting: second compound 0.03 µM, first compound 0.0316 µM.
Setting [26] is: second compound 0.03 µM, first compound 0.1 µM.
Where [27] appears, read: second compound 0.03 µM, first compound 0.316 µM.
The mark [28] stands for this setting: second compound 0.03 µM, first compound 1 µM.
Where [29] appears, read: second compound 0.03 µM, first compound 3.16 µM.
Where [30] appears, read: second compound 0.03 µM, first compound 10 µM.
Where [31] appears, read: second compound 0.0949 µM, first compound 0.0316 µM.
Setting [32] is: second compound 0.0949 µM, first compound 0.1 µM.
Where [33] appears, read: second compound 0.0949 µM, first compound 0.316 µM.
[34] abbreviates: second compound 0.0949 µM, first compound 1 µM.
Setting [35] is: second compound 0.0949 µM, first compound 3.16 µM.
Where [36] appears, read: second compound 0.0949 µM, first compound 10 µM.
[37] abbreviates: second compound 0.3 µM, first compound 0.0316 µM.
[38] abbreviates: second compound 0.3 µM, first compound 0.1 µM.
The mark [39] stands for this setting: second compound 0.3 µM, first compound 0.316 µM.
[40] abbreviates: second compound 0.3 µM, first compound 1 µM.
The mark [41] stands for this setting: second compound 0.3 µM, first compound 3.16 µM.
Where [42] appears, read: second compound 0.3 µM, first compound 10 µM.
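Note: spheroids exposed to agents for 7 days.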
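Throughout, for viability, T/C: 100% = DMSO vehicle wells.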

The term pIC50 denotes −log10 of the IC50, conventionally taken in molar units. Usually viability, T/C stands for the ratio of treated to control. In the case of `CC(=O)OC12COC1CC(O)C1(C)C(=O)C(O)C3=C(C)C(OC(=O)C(O)C(NC(=O)OC(C)(C)C)c4ccccc4)CC(O)(C(OC(=O)c4ccccc4)C21)C3(C)C` (stereo not drawn) + CCn1c(-c2cccnc2C(C)OC)c2c3cc(ccc31)N1CCOC(CC(NC(=O)C(C(C)C)N(C)C(=O)C3(F)CCN(C(=O)C#CC(C)(C)N(C)C)CC3)C(=O)N3CCCC(N3)C(=O)OCC(C)(C)C2)C1, the negative logarithm of the IC50 (pIC50) was above 7.50 under setting [1]; above 7.50 under setting [2]; above 7.50 under setting [3]; above 7.50 under setting [4]; above 7.50 under setting [5]; above 7.50 under setting [6]. Besides, the viability, T/C reads like this: under setting [7], 40.1%; under setting [8], 36.8%; under setting [9], 36.3%; under setting [10], 39.4%; under setting [11], 44.2%; under setting [12], 41%. Also, the viability, T/C by setting is: under setting [13], 37.7%; under setting [14], 35.4%; under setting [15], 41.1%; under setting [16], 42.1%; under setting [17], 38.7%; under setting [18], 35.6%. The viability, T/C under setting [19] was 36.5%; the viability, T/C under setting [20] is 36.7%; the viability, T/C under setting [21] was 36.6%; the viability, T/C under setting [22] was 40.9%; the viability, T/C under setting [23] was 49.5%; the viability, T/C under setting [24] is 46.9%. Also, the viability, T/C was 33.5% under setting [25]; 35.5% under setting [26]; 36.5% under setting [27]; 40.3% under setting [28]; 42.5% under setting [29]; 34% under setting [30]. For the same molecule, the viability, T/C under setting [31] was 39%; the viability, T/C under setting [32] is 32.7%; the viability, T/C under setting [33] was 33.4%; the viability, T/C under setting [34] was 34%; the viability, T/C under setting [35] was 35.6%; the viability, T/C under setting [36] was 37.1%. In addition, the viability, T/C under setting [37] was 28.5%; the viability, T/C under setting [38] is 22.3%; the viability, T/C under setting [39] was 22.4%; the viability, T/C under setting [40] is 23.4%; the viability, T/C under setting [41] is 23.7%; the viability, T/C under setting [42] is 20.9%.
For `CCN1CCN(Cc2ccc(Nc3ncc(F)c(-c4cc(F)c5nc(C)n(C(C)C)c5c4)n3)nc2)CC1`, the viability, T/C (compound 0.00316 µM) is 110% and 103% (2×) and 94.4%; the viability, T/C (compound 0.01 µM) is 91.3% [middle of 4 runs]; the viability, T/C (compound 0.0316 µM) was 84.7% [middle of 4 runs]; the viability, T/C (compound 0.1 µM) was 85.1% [middle of 4 runs]; the viability, T/C (compound 0.316 µM) is 92.1% [middle of 4 runs]; the viability, T/C (compound 1 µM) is 83.4% [middle of 4 runs]. For the same molecule, under “curve of compound”, the pIC50 is below 6.00.
With `CC1(O)CCCC1n1c(=O)c(C(F)F)cc2cnc(NC3CCN(S(C)(=O)=O)CC3)nc21` (stereo not drawn), the viability, T/C by setting is: (compound 0.1 µM) 94.2% [middle of 4 runs]; (compound 0.316 µM) 86.8% [middle of 4 runs]; (compound 1 µM) 96% [middle of 4 runs].
Regarding `C[C@@H](NC(=O)c1ncnc(N)c1Cl)c1ncc(C(=O)Nc2cc(C(F)(F)F)c(Cl)cn2)s1`, the viability, T/C is 102% and 115% and 92.8% (compound 0.0316 µM); 120% [middle of 4 runs] (compound 0.1 µM); 103% [middle of 4 runs] (compound 0.316 µM); 114% [middle of 4 runs] (compound 1 µM); 102% [middle of 4 runs] (compound 3.16 µM). Further, under “curve of compound”, the pIC50 was below 5.00.
As for `CCc1c2c(nc3ccc(O)cc13)-c1cc3c(c(=O)n1C2)COC(=O)[C@]3(O)CC`, the viability, T/C is 98.3% [middle of 4 runs] (compound 0.003 µM), 65.8% [middle of 4 runs] (compound 0.03 µM) and 31.6% [middle of 4 runs] (compound 0.3 µM).
In the case of `CCC(CC)c1cc(NC2CCC(N)C2)n2nccc2n1` (stereo not drawn) + CCn1c(-c2cc(N3CCN(C)CC3)cnc2C(C)OC)c2c3cc(ccc31)-c1csc(n1)CC(NC(=O)C1CC1C)C(=O)N1CCCC(N1)C(=O)OCC(C)(C)C2, the pIC50 under setting [1] is 6.37; the negative logarithm of the IC50 (pIC50) under setting [2] was above 7.50; the pIC50 under setting [3] was above 7.50; the negative logarithm of the IC50 (pIC50) under setting [4] is above 7.50; the pIC50 under setting [5] is above 7.50; the negative logarithm of the IC50 (pIC50) under setting [6] is above 7.50. Besides, the viability, T/C is, setting by setting: under setting [7], 72.3%; under setting [8], 59.8%; under setting [9], 55.2%; under setting [10], 33.9%; under setting [11], 0.67%; under setting [12], 0.23%. Moreover, the viability, T/C was 44.1% under setting [13]; 40.2% under setting [14]; 36.8% under setting [15]; 25.3% under setting [16]; 0.46% under setting [17]; 0.16% under setting [18]. For the same molecule, the viability, T/C under setting [19] was 24.1%; the viability, T/C under setting [20] was 20.3%; the viability, T/C under setting [21] is 17.9%; the viability, T/C under setting [22] was 9.58%; the viability, T/C under setting [23] was 0.42%; the viability, T/C under setting [24] is 0.27%. In addition, the viability, T/C is, setting by setting: under setting [25], 13%; under setting [26], 13.9%; under setting [27], 13.1%; under setting [28], 6.07%; under setting [29], 0.25%; under setting [30], 0.24%. The viability, T/C was 9.5% under setting [31]; 10.2% under setting [32]; 9.16% under setting [33]; 5.84% under setting [34]; 0.57% under setting [35]; 0.11% under setting [36]. The viability, T/C was 8.46% under setting [37]; 9.75% under setting [38]; 8.9% under setting [39]; 4.9% under setting [40]; 0.23% under setting [41]; 0.41% under setting [42].
